In US5932584A, “Optically active 2,3-dihydroimidazo(1,2-C) quinazoline derivatives, the preparation and antihypertensive use thereof” (National Science Council, priority 1997, dated 1999):
Where two headings read alike, the source gives them in different places.

Biological target: α1 -Adrenergic receptor
Assay: α1-Adrenergic receptor binding assay ([^3 H] prazosin competition, rat brain cortex membranes)
Procedure: Rat brain cortex membranes were prepared for [^3 H] prazosin or [^3 H] clonidine binding by homogenizing tissues in 0.32 M sucrose buffered with 50 mM Tris buffer (pH 7.4) in a tissue/buffer ratio of 1:10. After the removal of nuclei by centrifugation at 1000×g for 10 min, P2 membranes were pelleted by centrifuging the supernatant at 22,000×g for 20 min. After two periods of centrifugation at 22,000×g and resuspension in fresh buffer, the membrane suspension (about 2 mg/ml protein) was ready for use.
α1 -Adrenergic receptor binding assays (in triplicate) were carried out with 0.2 nM [^3 H] prazosin in a final volume of 1.0 ml of Tris buffer at pH 7.4 for 30 min at room temperature, using […] phentolamine to determine non-specific binding. […] The concentrations of synthetic compounds for competition binding were in the range of 0.1-100 μM. After binding had reached equilibrium, incubations were terminated by collecting the membranes on Whatman GF/B filters; the filters were washed twice with 5 ml of 50 mM Tris buffer (pH 7.4) at 4° C.
[^3 H]prazosin (76.6 Ci/mmol) and [^3 H]clonidine (47.0 Ci/mmol) were purchased from NEN. All other chemicals used were reagent grade and were purchased from Sigma (St. Louis, Mo.).

[1] = preliminary results, read-out: affinity to α1 -adrenoceptor (Ki)
[2] = rat brain cortex membranes, 0.2 nM [^3 H] prazosin, pH 7.4, 30 min, room temperature, read-out: α1 Binding (Ki)

| SMILES | Ki [1] | Ki [2] |
| --- | --- | --- |
| COc1ccccc1N1CCN(C[C@H]2CN=C3c4ccccc4N=C(SC)N32)CC1 [Example 16] | 1.88 nM | 1.88 nM |
| COc1ccccc1N1CCN(CC2CN=C3c4ccccc4N=C(SC)N32)CC1 (racemic) [(RS)-I, reference compound] | 3.55 nM |  |
| COc1ccccc1N1CCN(C[C@@H]2CN=C3c4ccccc4N=C(SC)N32)CC1 [Example 17] | 554 nM | 554 nM |
| COc1ccccc1N1CCN(C[C@@H]2CN=C3c4ccccc4NC(=O)N32)CC1 [Example 19] |  | 26 nM |
| COc1ccccc1N1CCN(C[C@H]2CN=C3c4ccccc4NC(=O)N32)CC1 [Example 18] | 0.1 nM | 0.1 nM |
